Assays:
human GPR40 (A1 site) = target: T1, human GPR40 (A1 site) (Homo sapiens, UniProt O14842); assay: A1 site radioligand binding with [3H]-TAK-875
T1 construct: full length recombinant human GPR40 (GPR40) cDNA; expressed in transfected cells; host or cells: HEK 293, stably transfected; crude cell surface membranes
Description: Crude cell surface membranes were prepared from human embryonic kidney 293 (HEK 293) cells stably transfected (for the wild type) or transiently transfected (for the mutants and corresponding wild type) with full length recombinant human GPR40 (GPR40) cDNA, using differential centrifugation methods.
A1 Site Binding. 10 µL of compound diluted in 100% DMSO and 90 µL of Assay Buffer (50 mM Tris-HCl, pH 7.5, 5 mM CaCl2, 5 mM MgCl2, 0.1% w/v fatty acid-free BSA) were added to a deep 96-well polypropylene assay plate (Beckman Coulter).
Assays were terminated by filtration through GF/C glass fiber filtermats (Perkin Elmer) presoaked in 50 mM Tris–HCl, pH 7.5, using a Mach III cell harvester (TomTec). Filtermats were washed two times with 5 mL of ice-cold 50 mM Tris–HCl, pH 7.5 buffer, dried 1 h in a convection oven at 60 °C and embedded with Meltilex A solid scintillant (Perkin Elmer). Radioactivity was determined as counts per min (cpm) using a Trilux Microbeta plate scintillation counter (Perkin Elmer).

wild type ICR mice = assay: Intraperitoneal glucose tolerance test (IPGTT) in wild type ICR mice; type: in vivo, mouse; conditions: various oral doses
Description: (§1) Nine to ten week old male ICR mice (Envigo) and GPR40 KO mice (Taconic) were used. The day before an IPGTT (~1600), animals were fasted in clean cages. The following morning (~0800), animals were randomized on fasting glucose and body weight (N = 6 per group). Mice were orally administered a test article or vehicle 60 min prior to an intraperitoneal (IP) injection of glucose (2g/kg). Blood glucose levels were determined by a glucometer from tail bleeds taken at 0, 15, 30, 60, and 120 min after the glucose challenge. An average of two readings were reported at each time point. Also, blood samples were collected into serum tubes at 0, 3, 6, and 15 min post glucose injection for insulin measurement. Serum tubes were centrifuged at 3000g for 5 min and serum transferred into 96-well plates for insulin analysis by a Mesoscale rat/mouse insulin assay.

[1] = tested on: GPR40 knock-out (KO) mice; assay: IPGTT in GPR40 knock-out mice; type: in vivo, mouse; conditions: high dose of compound 1
Description: as §1

GPR40 KO mice = assay: Incretin secretion assay in GPR40 KO mice; type: in vivo, mouse
human GPR40 [2] = target: T2, human GPR40 (Homo sapiens, UniProt O14842); assay: Human GPR40 Calcium (Supplementary Table 1); type: cell-based
T2 construct: HEK293 cells stably overexpressing full length human GPR40; expressed in transfected cells

human GPR40 [3] = target: T2, human GPR40; assay: Human GPR40 b-arrestin; type: cell-based
human GPR40 [4] = target: T2, human GPR40; assay: Human GPR40 IP1; type: cell-based
hRXRalpha = hRXRalpha (Homo sapiens, UniProt P19793); assay: hRXRalpha binding
hRORalpha = hRORalpha (Homo sapiens, UniProt P35398); assay: hRORalpha binding
hRORbeta = hRORbeta (Homo sapiens, UniProt Q92753); assay: hRORbeta binding
hRORgamma = hRORgamma (Homo sapiens, UniProt P51449); assay: hRORgamma binding
hERalpha = hERalpha (Homo sapiens, UniProt P03372); assay: hERalpha binding
hGLUCR = hGLUCR (Homo sapiens, UniProt P47871); assay: hGLUCR binding
hD1 = hD1 (Homo sapiens, UniProt P21728); assay: hD1 cAMP; type: cell-based; conditions: read-out: hD1 cAMP Rel EC50
hCDK1 = hCDK1 (Homo sapiens, UniProt P06493); assay: hCDK1 binding
hCDK2 = hCDK2 (Homo sapiens, UniProt P24941); assay: hCDK2 binding
Dog hepatocyte clearance = type: in vitro ADME; conditions: hepatocytes
[5] = Mouse hepatocyte clearance; type: in vitro ADME; conditions: hepatocytes
[6] = Drug exposure in plasma after oral dose in wild type C57BL/6 mice; type: in vivo, mouse; conditions: 0.03-10 mpk, Supplementary Fig. 9
[7] = tested on: GPCRs (including GPR120), NHRs and Kinases; assay: Selectivity panels against GPCRs, NHRs and Kinases
GPR40 Y44F = GPR40 Y44F (Homo sapiens, UniProt O14842, Y44F); assay: cAMP accumulation assay, Y44F mutant
Description: (§2) HEK293 cells transiently transfected with Promega’s cAMP response element (CRE/luc2P) and a GPR40 construct were plated (40K cells/well) into 96-well microtiter plates using Dulbecco’s Modified Eagle’s Medium (DMEM) supplemented with 10% FBS, 20 mM HEPES, pH 7.4, 100 U/mL Penicillin, 100 µg/mL Streptomycin, and 800 µg/mL Geneticin. Test compounds were serially diluted three-fold in 100% DMSO and immediately diluted in media. […] EC50 values were calculated using a four-parameter logistic curve fitting equation.

GPR40 Y114F = GPR40 Y114F (Homo sapiens, UniProt O14842, Y114F); assay: cAMP accumulation assay, Y114F mutant
Description: as §2

GPR40 L112F = GPR40 L112F (Homo sapiens, UniProt O14842, L112F); assay: cAMP accumulation assay, L112F mutant
Description: as §2

GPR40 S123A = GPR40 S123A (Homo sapiens, UniProt O14842, S123A); assay: cAMP accumulation assay, S123A mutant
Chain of GPR40 S123A (O14842 whole entry S123A): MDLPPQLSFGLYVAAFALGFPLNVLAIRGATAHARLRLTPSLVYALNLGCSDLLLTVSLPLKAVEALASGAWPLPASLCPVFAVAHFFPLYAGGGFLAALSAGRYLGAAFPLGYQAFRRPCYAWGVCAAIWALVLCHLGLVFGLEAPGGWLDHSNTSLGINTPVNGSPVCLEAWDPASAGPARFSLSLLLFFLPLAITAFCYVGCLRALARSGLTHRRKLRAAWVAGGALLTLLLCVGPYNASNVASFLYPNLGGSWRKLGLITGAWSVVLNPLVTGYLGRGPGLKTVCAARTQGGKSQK
Description: as §2

T1 sequence (O14842 whole entry): as the sequence (O14842 whole entry S123A) above, with A123S counted along it
T2 sequence (O14842 whole entry): as the sequence (O14842 whole entry S123A) above, with A123S counted along it
Chain of GPR40 L112F (O14842 whole entry L112F): as the sequence (O14842 whole entry S123A) above, with L112F, A123S counted along it
Chain of hD1 (P21728 whole entry): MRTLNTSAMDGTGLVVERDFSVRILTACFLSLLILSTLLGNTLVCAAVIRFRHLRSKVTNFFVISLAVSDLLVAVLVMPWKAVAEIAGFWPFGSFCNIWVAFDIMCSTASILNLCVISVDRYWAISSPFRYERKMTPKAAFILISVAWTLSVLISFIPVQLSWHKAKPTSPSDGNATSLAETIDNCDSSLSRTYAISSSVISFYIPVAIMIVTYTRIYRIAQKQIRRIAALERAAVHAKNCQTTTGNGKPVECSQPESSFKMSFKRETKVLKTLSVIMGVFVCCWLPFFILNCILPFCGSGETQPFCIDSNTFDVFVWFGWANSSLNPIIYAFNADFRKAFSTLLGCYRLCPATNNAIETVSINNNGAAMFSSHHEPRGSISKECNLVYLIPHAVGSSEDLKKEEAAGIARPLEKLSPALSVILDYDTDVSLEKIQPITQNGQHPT
Chain of GPR40 Y44F (O14842 whole entry Y44F): as the sequence (O14842 whole entry S123A) above, with Y44F, A123S counted along it
Chain of hGLUCR (P47871 26-477): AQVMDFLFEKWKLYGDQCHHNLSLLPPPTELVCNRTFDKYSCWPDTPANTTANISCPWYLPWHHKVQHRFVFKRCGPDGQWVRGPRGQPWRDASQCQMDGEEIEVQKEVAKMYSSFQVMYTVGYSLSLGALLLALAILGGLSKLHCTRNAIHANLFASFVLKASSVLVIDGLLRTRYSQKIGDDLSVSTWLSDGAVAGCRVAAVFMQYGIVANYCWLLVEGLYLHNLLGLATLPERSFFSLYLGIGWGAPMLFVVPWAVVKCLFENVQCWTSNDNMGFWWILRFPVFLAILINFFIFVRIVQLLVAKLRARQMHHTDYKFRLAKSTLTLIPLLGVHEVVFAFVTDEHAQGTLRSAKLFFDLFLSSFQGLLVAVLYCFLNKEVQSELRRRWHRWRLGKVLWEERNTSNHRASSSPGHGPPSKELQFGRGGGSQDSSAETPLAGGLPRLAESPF
Chain of hRORgamma (P51449 whole entry): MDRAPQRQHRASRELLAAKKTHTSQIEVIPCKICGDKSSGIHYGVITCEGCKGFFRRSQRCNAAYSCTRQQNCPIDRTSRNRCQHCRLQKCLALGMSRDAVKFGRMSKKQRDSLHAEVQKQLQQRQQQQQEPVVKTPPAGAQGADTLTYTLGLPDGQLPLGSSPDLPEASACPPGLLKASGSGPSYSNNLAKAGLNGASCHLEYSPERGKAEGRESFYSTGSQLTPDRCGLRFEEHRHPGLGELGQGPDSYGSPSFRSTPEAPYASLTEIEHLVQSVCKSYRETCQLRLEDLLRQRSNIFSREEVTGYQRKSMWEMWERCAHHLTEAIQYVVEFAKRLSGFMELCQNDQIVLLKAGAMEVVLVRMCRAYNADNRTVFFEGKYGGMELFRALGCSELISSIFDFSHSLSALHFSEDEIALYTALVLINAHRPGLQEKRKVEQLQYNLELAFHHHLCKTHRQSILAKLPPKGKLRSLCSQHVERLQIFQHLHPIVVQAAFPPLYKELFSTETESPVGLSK
Chain of hRXRalpha (P19793 whole entry): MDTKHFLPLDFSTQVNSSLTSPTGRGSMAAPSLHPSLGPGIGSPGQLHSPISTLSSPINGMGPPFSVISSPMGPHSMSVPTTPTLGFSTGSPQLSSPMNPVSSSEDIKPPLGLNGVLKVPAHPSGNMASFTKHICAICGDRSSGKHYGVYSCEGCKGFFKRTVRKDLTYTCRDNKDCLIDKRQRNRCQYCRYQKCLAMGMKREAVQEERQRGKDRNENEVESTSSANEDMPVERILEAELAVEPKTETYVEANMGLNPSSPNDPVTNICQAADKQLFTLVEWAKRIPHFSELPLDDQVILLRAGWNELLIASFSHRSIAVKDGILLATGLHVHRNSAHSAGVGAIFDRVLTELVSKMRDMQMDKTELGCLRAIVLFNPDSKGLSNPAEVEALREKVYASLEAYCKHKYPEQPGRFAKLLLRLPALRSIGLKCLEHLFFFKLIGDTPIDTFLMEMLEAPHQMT
Chain of hRORalpha (P35398 whole entry): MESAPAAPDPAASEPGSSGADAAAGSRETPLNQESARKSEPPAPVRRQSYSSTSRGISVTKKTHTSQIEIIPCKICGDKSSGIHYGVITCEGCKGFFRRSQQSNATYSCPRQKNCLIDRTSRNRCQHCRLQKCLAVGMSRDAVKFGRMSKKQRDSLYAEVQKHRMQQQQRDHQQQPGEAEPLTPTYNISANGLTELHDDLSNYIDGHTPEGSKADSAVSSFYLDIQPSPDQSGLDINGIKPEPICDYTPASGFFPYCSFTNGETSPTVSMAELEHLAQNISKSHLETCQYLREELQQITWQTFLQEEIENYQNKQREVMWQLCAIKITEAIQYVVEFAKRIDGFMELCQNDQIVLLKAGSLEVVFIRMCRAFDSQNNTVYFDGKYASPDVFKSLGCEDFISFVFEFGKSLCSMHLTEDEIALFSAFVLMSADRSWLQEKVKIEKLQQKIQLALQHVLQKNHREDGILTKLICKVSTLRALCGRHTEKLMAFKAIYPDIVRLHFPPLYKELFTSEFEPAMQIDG
Chain of hERalpha (P03372 whole entry): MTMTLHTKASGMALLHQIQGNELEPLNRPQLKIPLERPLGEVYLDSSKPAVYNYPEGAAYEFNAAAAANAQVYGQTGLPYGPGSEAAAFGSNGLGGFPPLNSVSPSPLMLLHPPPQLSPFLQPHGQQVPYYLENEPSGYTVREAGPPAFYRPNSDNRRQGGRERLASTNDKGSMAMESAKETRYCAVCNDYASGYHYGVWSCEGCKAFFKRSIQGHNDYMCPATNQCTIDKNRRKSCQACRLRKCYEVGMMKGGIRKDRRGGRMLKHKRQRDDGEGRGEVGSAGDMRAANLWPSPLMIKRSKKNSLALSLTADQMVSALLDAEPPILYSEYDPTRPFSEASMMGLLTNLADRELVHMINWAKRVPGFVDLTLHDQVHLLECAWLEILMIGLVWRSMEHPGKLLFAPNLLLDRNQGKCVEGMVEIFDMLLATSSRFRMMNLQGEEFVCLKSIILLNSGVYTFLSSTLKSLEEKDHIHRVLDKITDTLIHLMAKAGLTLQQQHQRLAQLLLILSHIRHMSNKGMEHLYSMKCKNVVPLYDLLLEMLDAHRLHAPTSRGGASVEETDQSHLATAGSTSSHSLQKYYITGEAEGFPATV
Chain of GPR40 Y114F (O14842 whole entry Y114F): as the sequence (O14842 whole entry S123A) above, with Y114F, A123S counted along it
Chain of hRORbeta (Q92753 whole entry): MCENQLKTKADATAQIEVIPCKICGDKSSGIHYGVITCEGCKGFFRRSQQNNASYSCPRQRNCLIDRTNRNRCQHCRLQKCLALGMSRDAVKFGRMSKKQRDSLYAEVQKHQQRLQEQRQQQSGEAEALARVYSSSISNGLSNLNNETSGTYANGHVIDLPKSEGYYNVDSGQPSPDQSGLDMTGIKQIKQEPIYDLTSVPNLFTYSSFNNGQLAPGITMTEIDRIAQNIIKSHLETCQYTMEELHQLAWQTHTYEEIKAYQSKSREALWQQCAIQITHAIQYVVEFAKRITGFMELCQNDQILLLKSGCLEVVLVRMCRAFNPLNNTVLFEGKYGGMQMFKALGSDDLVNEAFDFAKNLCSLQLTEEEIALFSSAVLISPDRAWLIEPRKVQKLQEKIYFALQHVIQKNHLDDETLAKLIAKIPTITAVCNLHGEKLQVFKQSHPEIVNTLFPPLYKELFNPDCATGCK
Chain of hCDK1 (P06493 whole entry): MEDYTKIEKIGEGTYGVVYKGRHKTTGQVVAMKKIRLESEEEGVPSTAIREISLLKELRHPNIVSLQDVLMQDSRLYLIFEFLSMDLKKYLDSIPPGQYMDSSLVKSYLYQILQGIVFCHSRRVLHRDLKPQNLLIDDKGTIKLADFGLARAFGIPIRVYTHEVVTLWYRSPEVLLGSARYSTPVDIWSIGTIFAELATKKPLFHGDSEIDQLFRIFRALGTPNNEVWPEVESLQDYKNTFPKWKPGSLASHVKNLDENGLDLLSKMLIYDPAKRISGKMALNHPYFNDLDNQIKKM
Chain of hCDK1 (P14635 whole entry partner): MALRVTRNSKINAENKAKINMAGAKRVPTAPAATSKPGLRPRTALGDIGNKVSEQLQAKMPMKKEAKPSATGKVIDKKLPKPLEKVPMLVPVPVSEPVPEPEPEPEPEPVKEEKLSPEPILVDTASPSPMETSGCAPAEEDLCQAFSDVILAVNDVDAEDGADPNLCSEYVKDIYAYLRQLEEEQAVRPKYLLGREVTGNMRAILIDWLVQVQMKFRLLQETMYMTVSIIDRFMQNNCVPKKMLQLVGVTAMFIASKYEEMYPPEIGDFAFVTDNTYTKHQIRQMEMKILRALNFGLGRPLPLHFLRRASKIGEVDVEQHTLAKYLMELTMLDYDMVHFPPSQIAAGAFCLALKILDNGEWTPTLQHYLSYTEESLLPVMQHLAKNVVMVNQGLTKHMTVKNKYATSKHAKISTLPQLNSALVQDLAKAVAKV

**Q.** Which results are given for `COc1ccc(C(=O)N(CC(C)(C)C)c2cccc(C)n2)c(N2CCC(c3cc4ccc([C@@H](CC(=O)O)C5CC5)cc4o3)CC2)c1` [compound 1]?
**A.** Ki (human GPR40 (A1 site); Supplementary Table 1): > 5.59 µM; effect on [3H]-TAK-875 binding (human GPR40 (A1 site); addition of unlabeled compound, membranes from stably transfected cells): enhanced binding activity; affinity modulation factor (α) (human GPR40 (A1 site); allosteric modulator titration equation, [3H]-TAK-875 binding, Fig. 1a): 2.4; glucose excursion in IPGTT (wild type ICR mice): decreases in glucose excursion; insulin secretion in IPGTT (wild type ICR mice): Dose-dependent increases in insulin secretion; glucose lowering in IPGTT, GPR40 KO [1]: not observed; insulin secretion in IPGTT, GPR40 KO [1]: not observed; plasma active GIP concentrations, GPR40 KO (GPR40 KO mice): no effect; plasma total GLP-1 concentrations, GPR40 KO (GPR40 KO mice): no effect; Emax (human GPR40 [2]): 110%; EC50 (human GPR40 [3]): 0.0019 µM; Emax (human GPR40 [3]): 172%; EC50 (human GPR40 [4]): < 0.05 nM; Emax (human GPR40 [4]): 484%; Ki (hRXRalpha): > 10 µM; Ki (hRORalpha): > 20 µM; Ki (hRORbeta): > 13 µM; Ki (hRORgamma): > 20 µM; Ki (hERalpha): > 11 µM; Ki (hGLUCR): > 10 µM; EC50 (hD1): > 80 µM; IC50 (hCDK1): > 20 µM; IC50 (hCDK2): > 20 µM; recovery (Dog hepatocyte clearance; no ABT, read-out: Dog Hepatocyte Clearance no ABT % Recovery): 103%; hepatocyte CLint (Dog hepatocyte clearance; no ABT, read-out: Dog Hepatocyte Clearance no ABT Intrinsic Clearance): 31.4 µL/min/1e6 cells; recovery (Dog hepatocyte clearance; with ABT (concentration not stated), read-out: Dog Hepatocyte Clearance ABT % Recovery): 92.8%; hepatocyte CLint (Dog hepatocyte clearance; with ABT, read-out: Dog Hepatocyte Clearance ABT Intrinsic Clearance): 19.3 µL/min/1e6 cells; recovery ([5]; no ABT, read-out: Mouse Hepatocyte Clearance no ABT % Recovery): 103%; hepatocyte CLint ([5]; no ABT, read-out: Mouse Hepatocyte Clearance no ABT Intrinsic Clearance): 9.2 µL/min/1e6 cells; recovery ([5]; with ABT (concentration not stated), read-out: Mouse Hepatocyte Clearance ABT % Recovery): 92.8%; hepatocyte CLint ([5]; with ABT, read-out: Mouse Hepatocyte Clearance ABT Intrinsic Clearance): 12.4 µL/min/1e6 cells; pharmacokinetics in mouse (drug exposures in plasma) [6]: dose proportional; selectivity in selectivity panels [7]: highly selective; EC50 (GPR40 Y44F): > 30 µM; EC50 (GPR40 Y114F): 11 µM; EC50 (GPR40 L112F): 0.06 µM; improvement in EC50 in L112F mutant over wild type (GPR40 L112F; cAMP accumulation, 240 min): 3 fold; EC50 (GPR40 S123A): > 30 µM

Reference: article PMC5917010, “Structural basis for GPR40 allosteric agonism and incretin stimulation” (Nature Communications, 2018)
